From publication PMC6100347, “Simultaneous Determination of Decursin, Decursinol Angelate, Nodakenin, and Decursinol of Angelica gigas Nakai in Human Plasma by UHPLC-MS/MS: Application to Pharmacokinetic Study” (Molecules : A Journal of Synthetic Chemistry and Natural …, 2018)

Columns and labels:
[1] = Pharmacokinetic study after oral administration of AGN root extract powder in healthy Korean subjects; format: in vivo, human; details: mean ± SE, n = 10; for CL/F / Vd/F: humans; for CL/F / Vd/F / AUC(0-inf) / Tmax / half-life: single usual oral dose of 4.6 g AGN root extract powder; for CL/F: dose of each coumarin / AUC0–∞; for Vd/F / Cmax / AUC(0-inf) / Tmax / half-life: male; for Vd/F: human, plasma; for Cmax / AUC(0-inf) / Tmax / half-life: human plasma; for Cmax: single usual oral dose of 4.6 g AGN root extract powder (0.055 mg D, 0.184 mg DA, 1.095 mg nodakenin)
Description: Ten healthy male subjects (Korean, 23–25 years, weight of 56.7–86.2 kg, and height of 159.8–188.0 cm) were included for this clinical trial. These subjects were in good health condition prior to this study based on a physical examination, medical history, and laboratory tests. Clinical trial protocol was approved by the Institutional Review Board of Wonkwang Oriental Medicine Hospital, Gwangju, Korea (https://cris.nih.go.kr, no. KCT0001118). This clinical trial was carried out in accordance with the revised Declaration of Helsinki for biomedical research involving human subjects and Guideline for Good Clinical Practice.
All subjects fasted for at least 10 h before drug administration. They continued the fasting for another 4 h. These subjects abstained from consuming alcohol or xanthine-containing foods, or beverages during the study. A usual oral dose of AGN root extract powder was given to each subject with 240 mL of spring water. The usual dose approved by the MFDS was of 4.6 g. It contained 0.055 mg of D, 0.184 mg of DA, and 1.095 mg of nodakenin. Blood samples were taken from the forearm vein before and at 0.25, 0.5, 0.75, 1, 2, 3, 4, 6, 8, 12, and 24 h after oral administration. Samples were transferred to Vacutainer® (10 mL, Becton Dickinson and Company, NJ, USA) tubes and immediately centrifuged (10,000× g, 10 min, 4 °C) to obtain plasma samples. Obtained plasma samples were transferred to polyethylene tubes and stored at −80 °C until analysis.
Plasma concentration–time data were analyzed with non-compartmental method using WinNonlin® software (version 7.0, Pharsight®, Certara™ Company, Princeton, NJ, USA) to obtain pharmacokinetic parameters. The area under the plasma concentration–time curve from zero to time infinity (AUC0–∞) was calculated as AUC0–t + Ct/k, where Ct is was the last measurable concentration. AUC0–t was calculated by linear trapezoidal rule from zero to the last measurable time point. Oral clearance (CL/F) was calculated as dose of each coumarin divided by AUC0–∞, where F was oral bioavailability. The t1/2 was calculated as 0.693/k, where k was terminal rate constant. All results are expressed as mean value ± standard error (mean ± SE, n = 10).

[2] = Stability in human plasma under various storage conditions (QC samples); format: in vitro ADME; details: in % (unit assumed); for Stability, Processed Sample (10 °C in Auto Sampler for 24 h): extracted human plasma sample; for Stability, Processed Sample (10 °C in Auto Sampler for 24 h) / Stability, Long-Term (−80 °C for 30 Days) / Stability, Bench-Top (8 h at Room Temperature) / Stability, Freeze-Thaw (3 Cycles): mean ± SD, n = 5; for Stability, Long-Term (−80 °C for 30 Days) / Stability, Bench-Top (8 h at Room Temperature) / Stability, Freeze-Thaw (3 Cycles) / Stability mean values (range over all storage conditions and concentrations): human plasma; for Stability, Bench-Top (8 h at Room Temperature): measured vs initial value; for Stability, Freeze-Thaw (3 Cycles): −80 °C and room temperature; for Stability mean values (range over all storage conditions and concentrations): bench-top, processed sample, freeze-thaw, long-term, low and high QC
Description: Bench-top stability test was conducted by using unextracted QC samples at room temperature for 8 h. Processed sample stability test was carried out by analyzing extracted samples in an auto sampler at 10 °C for 24 h. Freeze–thaw stability was estimated after three frozen and thawing cycles at −80 °C and room temperature on consecutive days. Long-term stability was examined after storing samples at −80 °C for a month. Stability of each coumarin was estimated by comparing the initial value with measured value after the examination (n = 5). The sample was considered stable if each value was less than 15% and all value of data expressed as mean ± standard deviation (mean ± SD).

[3] = Published PK study of AGN-based dietary supplement Cogni Q after oral administration in humans; format: in vivo, human; details: Cogni Q (ref 23) vs 4.6 g AGN root extract powder
Description: PK study of the four coumarins has been reported in several studies. However, presented PK parameters are inconsistent with each other. Of these studies, only one paper has reported a PK study for D, DA, and DOH after oral administration in humans (male, n = 10) for AGN-based dietary supplement Cogni Q (119 mg D and 77 mg DA from four vegicaps). […] Such discrepancies in PK parameters between that study and the current study might be due to differences in dosage and the influence of excipients from different formulations. PKs of nodakenin in humans have not been reported previously.

Row | SMILES | CL/F [1] [L/h] | Vd/F [1] [L] | Cmax [1] [ng/mL] | AUC(0-inf) [1] [ng·h/mL] | Tmax [1] [h] | half-life [1] [h] | Stability, Processed Sample (10 °C in Auto Sampler for 24 h) ([2]; nominal conc. 0.15 ng/mL) | Stability, Processed Sample (10 °C in Auto Sampler for 24 h) ([2]; nominal conc. 40 ng/mL) | Stability, Long-Term (−80 °C for 30 Days) ([2]; nominal conc. 0.15 ng/mL) | Stability, Bench-Top (8 h at Room Temperature) ([2]; nominal conc. 0.15 ng/mL) | Stability, Freeze-Thaw (3 Cycles) ([2]; nominal conc. 0.15 ng/mL) | Stability, Long-Term (−80 °C for 30 Days) ([2]; nominal conc. 40 ng/mL) | Stability, Bench-Top (8 h at Room Temperature) ([2]; nominal conc. 40 ng/mL) | Stability, Freeze-Thaw (3 Cycles) ([2]; nominal conc. 40 ng/mL) | Stability mean values (range over all storage conditions and concentrations) [2] | t1/2 of published study relative to t1/2 of this study (times longer) [3]
1 | CC(C)(O[C@@H]1O[C@H](CO)[C@@H](O)[C@H](O)[C@H]1O)[C@H]1Cc2cc3ccc(=O)oc3cc2O1 [Nodakenin, nodakenin] | 622.29 ± 159.24 | 2800 ± 420 | 0.95 ± 0.17 | 3.11 ± 0.8 | 0.67 ± 0.04 | 6.28 ± 2.47 | 107.70 ± 9.77 | 103.17 ± 10.19 | 111.62 ± 8.13 | 101.43 ± 7.53 | 103.49 ± 8.40 | 101.90 ± 9.83 | 107.91 ± 6.81 | 104.79 ± 12.76 | 101.43–111.62 | –
2 | C/C=C(/C)C(=O)O[C@H]1Cc2cc3ccc(=O)oc3cc2OC1(C)C [DA, decursinol angelate] | 12.00 ± 1.97 | 60 ± 7.3 | 7.72 ± 0.84 | 19.6 ± 3.71 | 0.31 ± 0.04 | 4.04 ± 0.64 | 111.85 ± 12.49 | 103.88 ± 3.51 | 106.20 ± 9.09 | 108.58 ± 10.18 | 103.55 ± 8.34 | 99.35 ± 4.17 | 107.87 ± 4.07 | 100.75 ± 4.12 | 99.35–111.85 | ~3.7 times
3 | CC1(C)Oc2cc3oc(=O)ccc3cc2C[C@@H]1O [DOH, decursinol] | – | – | 0.92 ± 0.16 | 2.43 ± 0.45 | 0.64 ± 0.06 | 2.62 ± 0.5 | 102.43 ± 5.27 | 104.77 ± 2.48 | 87.35 ± 9.60 | 89.75 ± 11.39 | 92.06 ± 2.28 | 106.93 ± 11.89 | 101.81 ± 7.72 | 104.29 ± 9.30 | 87.35–106.93 | ~2.5 times
4 | CC(C)=CC(=O)O[C@H]1Cc2cc3ccc(=O)oc3cc2OC1(C)C [D, decursin] | 3.11 ± 0.42 | 11.9 ± 1.5 | 11.9 ± 1.43 | 22.3 ± 5.04 | 0.44 ± 0.05 | 3.03 ± 0.52 | 100.34 ± 9.38 | 108.94 ± 11.50 | 105.00 ± 9.02 | 101.91 ± 3.91 | 96.54 ± 10.95 | 102.26 ± 10.17 | 108.71 ± 14.16 | 102.80 ± 12.88 | 96.54–108.94 | about 5.84 times
